Experimental data from patent US11116765B2 (GRIFOLS, S.A., priority 2014, dated 2021).
Read-outs that look alike come from different tables or passages of the source.

Columns and labels:
[1] = system: M. avium; details: incubation of M. avium with antibiotic; cited from earlier work
[2] = system: Mycobacterium avium subsp hominissuis (MAH) MAC104 strain; assay: MAH lung infection in C57BL/6 mice, intranasal treatment; format: in vivo; details: 3 weeks
[3] = system: M. avium 104; details: 100 mcg/mL
[4] = system: M. abscessus 105; details: 100 mcg/mL
[5] = system: M. avium 104; details: THP-1 human macrophages, 200 mcg/mL
[6] = system: M. avium 104; details: THP-1 human macrophages, 20 mcg/mL

## CC1(C)S[C@@H]2[C@H](NC(=O)[C@H](N)c3ccccc3)C(=O)N2[C@H]1C(=O)O [ampicillin]
[1]
  effect on M. avium biofilm formation: no effect on biofilm

## O=C(O)c1cn(C2CC2)c2cc(N3CCNCC3)c(F)cc2c1=O [Ciprofloxacin, ciprofloxacin]
[2]
  effect on the growth of MAH in the lungs of mice compared with saline control: no significant effect
[3]
  Biofilm Colonization, Time: 4 Days: 4.0 ± 0.3 × 10^7
[4]
  Biofilm Colonization, Time: 4 Days: 3.0 ± 0.5 × 10^7
[5]
  Colonization in macrophages, Time: 4 days: 5.0 ± 0.3 × 10^4
[6]
  Colonization in macrophages, Time: 4 days: 1.1 ± 0.4 × 10^4

## [H]/N=C(/N)N[C@H]1[C@H](O)[C@@H](O)[C@H](O[C@@H]2O[C@@H](C)[C@](O)(C=O)[C@H]2O[C@@H]2O[C@@H](CO)[C@H](O)[C@@H](O)[C@@H]2NC)[C@@H](N/C(N)=N\[H])[C@@H]1O [streptomycin]
[1]
  effect on M. avium biofilm formation: increase
